US12258327B2, “5-membered heteroaryl-containing aminopyridine compounds as EGFR inhibitors” (YUHAN CORPORATION, priority 2021, dated 2025)
Like-named read-outs stand apart in the source and are kept apart here.

What was measured:
[1] = molecular target: EGFR del19/T790M/C797S (Homo sapiens, UniProt P00533, C797S/DEL746-750/T790M); assay: Biochemical EGFR kinase assay (Lance Ultra TR-FRET), triple mutant del19/T790M/C797S
Summary of the method: (§1)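 In this biochemical assay, phosphorylation after a one-hour room-temperature reaction was detected with europium-labelled anti-phosphopeptide antibody at 2 nM final concentration.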

[2] = molecular target: EGFR L858R/T790M/C797S (Homo sapiens, UniProt P00533, C797S/L858R/T790M); assay: Biochemical EGFR kinase assay (Lance Ultra TR-FRET), triple mutant L858R/T790M/C797S
Summary of the method: as §1

[3] = molecular target: EGFR del19/C797S (Homo sapiens, UniProt P00533, C797S/DEL746-750); assay: Biochemical EGFR kinase assay (Lance Ultra TR-FRET), double mutant del19/C797S
Summary of the method: as §1

[4] = molecular target: EGFR L858R/C797S (Homo sapiens, UniProt P00533, C797S/L858R); assay: Biochemical EGFR kinase assay (Lance Ultra TR-FRET), double mutant L858R/C797S
Summary of the method: as §1

[5] = molecular target: EGFR wildtype (WT) (Homo sapiens, UniProt P00533); assay: Biochemical EGFR kinase assay (Lance Ultra TR-FRET), wildtype
Summary of the method: as §1

[6] = Km ATP, read-out: IC50 del19/T790M/C797S, Km ATP
[7] = Km ATP, read-out: IC50 L858R/T790M/C797S, Km ATP
[8] = Km ATP, read-out: IC50 del19/C797S, Km ATP
[9] = Km ATP, read-out: IC50 L858R/C797S, Km ATP
[10] = Km ATP, read-out: IC50 WT, Km ATP
[11] = Km ATP, read-out: IC50 del19/T790M/C797S (nM) Km ATP
[12] = Km ATP, read-out: IC50 L858R/T790M/C797S (nM) Km ATP
[13] = Km ATP, read-out: IC50 del19/C797S (nM) Km ATP
[14] = Km ATP, read-out: IC50 L858R/C797S (nM) Km ATP
[15] = Km ATP, read-out: IC50 WT (nM) Km ATP
[16] = IC50 del19/T790M/C797S (nM) 100 μM ATP, 100 μM ATP
[17] = IC50 L858R/T790M/C797S (nM) 100 μM ATP, 100 μM ATP
[18] = IC50 del19/C797S (nM) 100 μM ATP, 100 μM ATP
[19] = IC50 L858R/C797S (nM) 100 μM ATP, 100 μM ATP
[20] = IC50 WT (nM) 100 μM ATP, 100 μM ATP

Sequence of EGFR del19/T790M/C797S (P00533 with tags, fused parts or gaps DEL746-750/T790M/C797S): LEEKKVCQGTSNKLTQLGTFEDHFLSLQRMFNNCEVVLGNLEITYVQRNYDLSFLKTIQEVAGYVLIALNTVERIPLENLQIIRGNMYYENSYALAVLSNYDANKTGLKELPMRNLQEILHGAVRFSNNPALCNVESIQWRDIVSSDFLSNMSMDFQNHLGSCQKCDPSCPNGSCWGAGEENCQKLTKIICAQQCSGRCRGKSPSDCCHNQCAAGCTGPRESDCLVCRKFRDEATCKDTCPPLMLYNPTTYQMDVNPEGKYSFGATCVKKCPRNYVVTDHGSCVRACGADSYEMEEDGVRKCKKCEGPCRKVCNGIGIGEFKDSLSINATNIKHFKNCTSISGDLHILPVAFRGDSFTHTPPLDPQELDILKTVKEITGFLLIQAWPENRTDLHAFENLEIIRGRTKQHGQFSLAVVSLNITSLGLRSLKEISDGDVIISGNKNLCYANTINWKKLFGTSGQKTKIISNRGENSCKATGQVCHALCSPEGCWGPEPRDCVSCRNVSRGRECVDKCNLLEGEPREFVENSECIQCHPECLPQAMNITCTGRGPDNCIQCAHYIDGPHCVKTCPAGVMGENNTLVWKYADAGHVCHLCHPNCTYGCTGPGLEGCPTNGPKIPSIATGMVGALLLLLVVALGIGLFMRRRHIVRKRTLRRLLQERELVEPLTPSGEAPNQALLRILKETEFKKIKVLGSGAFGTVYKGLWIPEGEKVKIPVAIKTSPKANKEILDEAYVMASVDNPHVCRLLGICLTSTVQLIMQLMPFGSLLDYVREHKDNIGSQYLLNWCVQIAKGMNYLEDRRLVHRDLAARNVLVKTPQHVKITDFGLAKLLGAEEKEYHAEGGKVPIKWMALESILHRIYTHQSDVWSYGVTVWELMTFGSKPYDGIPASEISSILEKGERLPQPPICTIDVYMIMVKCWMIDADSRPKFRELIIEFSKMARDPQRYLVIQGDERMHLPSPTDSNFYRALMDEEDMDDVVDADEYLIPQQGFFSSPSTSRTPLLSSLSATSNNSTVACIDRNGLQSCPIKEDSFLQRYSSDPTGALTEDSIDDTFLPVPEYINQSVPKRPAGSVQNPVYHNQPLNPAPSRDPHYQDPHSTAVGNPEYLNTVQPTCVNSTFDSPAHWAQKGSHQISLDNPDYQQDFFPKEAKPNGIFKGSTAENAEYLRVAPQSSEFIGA
Sequence of EGFR L858R/C797S (P00533 25-1210 C797S/L858R): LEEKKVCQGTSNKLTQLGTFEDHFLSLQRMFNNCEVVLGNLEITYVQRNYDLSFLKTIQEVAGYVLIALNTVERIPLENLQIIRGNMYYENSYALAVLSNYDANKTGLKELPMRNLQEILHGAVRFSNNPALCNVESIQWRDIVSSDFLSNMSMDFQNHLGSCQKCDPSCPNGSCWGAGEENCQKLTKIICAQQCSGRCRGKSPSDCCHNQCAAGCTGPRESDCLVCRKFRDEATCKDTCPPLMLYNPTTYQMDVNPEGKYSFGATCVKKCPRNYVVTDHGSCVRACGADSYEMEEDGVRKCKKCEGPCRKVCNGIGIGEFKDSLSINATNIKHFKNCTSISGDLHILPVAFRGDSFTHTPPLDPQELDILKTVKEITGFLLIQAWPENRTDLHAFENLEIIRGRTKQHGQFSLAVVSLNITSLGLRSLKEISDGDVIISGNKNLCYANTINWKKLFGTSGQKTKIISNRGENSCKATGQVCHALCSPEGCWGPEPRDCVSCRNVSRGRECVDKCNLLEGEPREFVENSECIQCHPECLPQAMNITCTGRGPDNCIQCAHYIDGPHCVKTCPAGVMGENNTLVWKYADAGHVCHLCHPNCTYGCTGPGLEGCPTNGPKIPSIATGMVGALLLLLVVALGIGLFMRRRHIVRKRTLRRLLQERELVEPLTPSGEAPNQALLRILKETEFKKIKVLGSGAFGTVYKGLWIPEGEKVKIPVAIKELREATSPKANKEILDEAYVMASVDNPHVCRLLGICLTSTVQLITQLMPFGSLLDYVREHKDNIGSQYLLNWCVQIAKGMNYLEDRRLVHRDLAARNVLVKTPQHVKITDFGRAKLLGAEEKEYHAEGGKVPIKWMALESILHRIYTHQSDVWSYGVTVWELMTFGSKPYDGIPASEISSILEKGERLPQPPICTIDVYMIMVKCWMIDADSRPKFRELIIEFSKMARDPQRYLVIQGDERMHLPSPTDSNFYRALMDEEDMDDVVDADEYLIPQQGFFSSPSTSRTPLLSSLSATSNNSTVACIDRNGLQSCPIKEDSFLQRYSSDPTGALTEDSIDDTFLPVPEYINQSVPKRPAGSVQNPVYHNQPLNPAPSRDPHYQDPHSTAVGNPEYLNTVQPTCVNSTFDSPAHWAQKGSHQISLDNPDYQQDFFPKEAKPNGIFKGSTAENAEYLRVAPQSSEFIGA
Sequence of EGFR del19/C797S (P00533 with tags, fused parts or gaps DEL746-750/C797S): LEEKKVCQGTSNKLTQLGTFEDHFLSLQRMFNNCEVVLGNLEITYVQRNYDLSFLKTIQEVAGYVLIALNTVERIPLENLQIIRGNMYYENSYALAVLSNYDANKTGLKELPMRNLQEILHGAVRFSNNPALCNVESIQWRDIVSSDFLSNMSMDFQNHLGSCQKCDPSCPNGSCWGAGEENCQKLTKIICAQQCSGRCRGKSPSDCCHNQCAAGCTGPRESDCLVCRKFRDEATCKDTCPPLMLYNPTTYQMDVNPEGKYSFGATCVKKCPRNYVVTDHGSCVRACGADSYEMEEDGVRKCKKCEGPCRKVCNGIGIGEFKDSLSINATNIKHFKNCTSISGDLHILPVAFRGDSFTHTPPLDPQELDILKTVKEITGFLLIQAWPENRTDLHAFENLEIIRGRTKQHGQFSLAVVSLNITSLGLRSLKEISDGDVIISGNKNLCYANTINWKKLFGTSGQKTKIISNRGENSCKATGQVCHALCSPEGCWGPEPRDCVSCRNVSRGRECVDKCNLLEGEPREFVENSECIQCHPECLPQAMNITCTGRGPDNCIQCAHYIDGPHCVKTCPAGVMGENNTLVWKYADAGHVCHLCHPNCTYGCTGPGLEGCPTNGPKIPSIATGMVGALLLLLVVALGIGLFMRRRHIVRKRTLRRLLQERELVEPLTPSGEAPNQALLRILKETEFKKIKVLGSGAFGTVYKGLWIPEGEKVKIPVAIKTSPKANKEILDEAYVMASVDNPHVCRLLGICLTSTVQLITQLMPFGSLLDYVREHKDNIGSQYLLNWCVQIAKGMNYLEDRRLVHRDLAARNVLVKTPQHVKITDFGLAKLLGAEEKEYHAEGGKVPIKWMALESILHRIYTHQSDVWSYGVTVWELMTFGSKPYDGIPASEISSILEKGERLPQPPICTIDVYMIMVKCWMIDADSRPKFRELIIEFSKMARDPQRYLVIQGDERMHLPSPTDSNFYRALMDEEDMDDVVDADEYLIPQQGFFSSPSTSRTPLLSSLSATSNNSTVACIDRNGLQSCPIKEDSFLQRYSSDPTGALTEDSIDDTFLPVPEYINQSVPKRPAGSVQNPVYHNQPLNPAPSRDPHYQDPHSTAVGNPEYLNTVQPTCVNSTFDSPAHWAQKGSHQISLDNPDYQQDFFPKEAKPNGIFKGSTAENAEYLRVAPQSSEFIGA
Sequence of EGFR wildtype (WT) (P00533 25-1210): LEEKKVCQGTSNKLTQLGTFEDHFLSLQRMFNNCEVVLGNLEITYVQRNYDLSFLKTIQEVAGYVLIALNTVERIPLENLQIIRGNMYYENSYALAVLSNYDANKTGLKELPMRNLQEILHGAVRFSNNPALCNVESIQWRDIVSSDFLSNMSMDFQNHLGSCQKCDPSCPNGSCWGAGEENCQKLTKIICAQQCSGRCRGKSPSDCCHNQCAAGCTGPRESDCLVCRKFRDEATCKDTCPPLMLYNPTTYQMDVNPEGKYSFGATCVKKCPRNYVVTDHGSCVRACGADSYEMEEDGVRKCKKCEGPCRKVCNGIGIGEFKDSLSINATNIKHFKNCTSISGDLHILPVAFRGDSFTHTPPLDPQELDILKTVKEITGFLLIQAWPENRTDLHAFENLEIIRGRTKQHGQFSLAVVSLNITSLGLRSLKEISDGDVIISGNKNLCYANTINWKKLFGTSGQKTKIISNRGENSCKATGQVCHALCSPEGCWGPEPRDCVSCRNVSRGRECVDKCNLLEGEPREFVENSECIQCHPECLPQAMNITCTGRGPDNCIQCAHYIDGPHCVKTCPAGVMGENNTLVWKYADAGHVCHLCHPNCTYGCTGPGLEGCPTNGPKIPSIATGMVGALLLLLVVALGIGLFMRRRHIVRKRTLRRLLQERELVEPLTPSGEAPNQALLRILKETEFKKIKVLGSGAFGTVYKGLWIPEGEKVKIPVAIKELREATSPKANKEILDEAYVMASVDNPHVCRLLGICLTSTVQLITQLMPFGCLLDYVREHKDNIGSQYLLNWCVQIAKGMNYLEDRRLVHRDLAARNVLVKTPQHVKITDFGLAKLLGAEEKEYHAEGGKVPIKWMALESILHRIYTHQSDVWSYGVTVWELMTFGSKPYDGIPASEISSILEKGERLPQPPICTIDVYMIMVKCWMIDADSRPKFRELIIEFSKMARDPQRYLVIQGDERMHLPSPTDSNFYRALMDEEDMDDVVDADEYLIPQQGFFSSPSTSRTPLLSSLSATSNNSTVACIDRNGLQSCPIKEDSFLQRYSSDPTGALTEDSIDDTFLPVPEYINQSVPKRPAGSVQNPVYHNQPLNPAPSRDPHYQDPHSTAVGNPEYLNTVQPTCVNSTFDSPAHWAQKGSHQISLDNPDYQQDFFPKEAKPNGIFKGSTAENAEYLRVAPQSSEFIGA

An IC50 [1, 6] of 0.5 nM, an IC50 [2, 7] of 1.1 nM and an IC50 [3, 8] of 14.2 nM were found for Cn1nc(-c2cnc(Nc3ccnc(-c4cnn(CC(F)F)c4)c3)nc2N[C@H]2CC[C@@](C)(O)CC2)cc1C(F)(F)F [Example 361, (1s,4s)-4-((2-((2-(1-(2,2-Difluoroethyl)-1H-pyrazol-4-yl)pyridin-4-yl)amino)-5-(1-methyl-5-(trifluoromethyl)-1H-pyrazol-3-yl)pyrimidin-4-yl)amino)-1-methylcyclohexan-1-ol] in this work. It also gave an IC50 [4, 9] of 20 nM and an IC50 [5, 10] of 685 nM.

An IC50 [1, 11] of 1.3 nM, an IC50 [2, 12] of 1.1 nM and an IC50 [3, 13] of 410 nM were found for FC(F)Cn1cc(-c2nccc(Nc3cc(NC4CCCC(F)C4)c(-c4ccn(C(F)F)n4)cn3)n2)cn1 (stereo not shown) [Example 180, N^2-(2-(1-(2,2-Difluoroethyl)-1H-pyrazol-4-yl)pyrimidin-4-yl)-5-(1-(difluoromethyl)-1H-pyrazol-3-yl)-N^4-(3-fluorocyclohexyl)pyridine-2,4-diamine] in this work. The IC50 [4, 14] was 23.2 nM and the IC50 [5, 15] was 418 nM.

An IC50 [1, 16] of 7.4 nM, an IC50 [1, 11] of 12.1 nM and an IC50 [2, 17] of 5.4 nM were found for CN(CC(F)F)C[C@H]1CC[C@@H](Nc2cc(Nc3ccnc(-c4cnn(S(=O)(=O)C5CC5)c4)n3)ncc2-c2ccn(C)n2)CC1 [Example 237, N^2-(2-(1-(Cyclopropylsulfonyl)-1H-pyrazol-4-yl)pyrimidin-4-yl)-N^4-((1s,4s)-4-(((2,2-difluoroethyl)(methyl)amino)methyl)cyclohexyl)-5-(1-methyl-1H-pyrazol-3-yl)pyridine-2,4-diamine] in this work. For the same molecule, the IC50 [2, 12] was 3 nM, the IC50 [3, 18] was 6.7 nM and the IC50 [3, 13] was 17.5 nM. It also gave an IC50 [4, 19] of 61.4 nM, an IC50 [4, 14] of 6.5 nM and an IC50 [5, 20] of 2800 nM. For the same molecule, the IC50 [5, 15] was 15.5 nM.

An IC50 [1, 16] of 0.1 nM, an IC50 [2, 17] of 0.2 nM and an IC50 [3, 18] of 1.1 nM were found for CN(C)C[C@H]1C[C@@H](CNc2cc(Nc3ccnc(-c4cnn(S(=O)(=O)C5CC5)c4)n3)ncc2-c2ccn(C(F)F)n2)C1 [Example 203, N^2-(2-(1-(Cyclopropylsulfonyl)-1H-pyrazol-4-yl)pyrimidin-4-yl)-5-(1-(difluoromethyl)-1H-pyrazol-3-yl)-N^4-(((1s,3s)-3-((dimethylamino)methyl)cyclobutyl)methyl)pyridine-2,4-diamine] in this work. For the same molecule, the IC50 [4, 19] was 8.3 nM and the IC50 [5, 20] was 2970 nM.

An IC50 [1, 11] of 3 nM, an IC50 [2, 12] of 2.3 nM and an IC50 [3, 13] of 1260 nM were found for COc1ccc(-c2nccc(Nc3cc(N[C@H]4CC[C@@](C)(O)CC4)c(-c4ccn(C(F)F)n4)cn3)n2)cn1 [Example 165, (1s,4s)-4-((5-(1-(Difluoromethyl)-1H-pyrazol-3-yl)-2-((2-(6-methoxypyridin-3-yl)pyrimidin-4-yl)amino)pyridin-4-yl)amino)-1-methylcyclohexan-1-ol] in this work. It also gave an IC50 [4, 14] of 884 nM and an IC50 [5, 15] of 6830 nM.

An IC50 [1, 16] of 0.3 nM, an IC50 [1, 11] of 0.3 nM and an IC50 [2, 17] of 0.1 nM were found for O=S(=O)(C1CC1)n1cc(-c2nccc(Nc3cc(N[C@H]4CC[C@@H](CN5CCC5)CC4)c(-c4ccn(C(F)F)n4)cn3)n2)cn1 [Example 208, N^4-((1s,4s)-4-(Azetidin-1-ylmethyl)cyclohexyl)-N^2-(2-(1-(cyclopropylsulfonyl)-1H-pyrazol-4-yl)pyrimidin-4-yl)-5-(1-(difluoromethyl)-1H-pyrazol-3-yl)pyridine-2,4-diamine] in this work. It also gave an IC50 [2, 12] of 0.1 nM, an IC50 [3, 18] of 0.2 nM and an IC50 [3, 13] of 0.2 nM. For the same molecule, the IC50 [4, 19] was 0.2 nM, the IC50 [4, 14] was 0.2 nM and the IC50 [5, 20] was 128 nM. The IC50 [5, 15] was 0.6 nM.

An IC50 [1, 11] of 0.5 nM, an IC50 [2, 12] of 0.8 nM and an IC50 [3, 13] of 43.9 nM were found for O=S(=O)(C1CC1)n1cc(-c2nccc(Nc3cc(NC4CCCN(CCF)C4)c(-c4ccn(C(F)F)n4)cn3)n2)cn1 (stereo not shown) [Example 218, N^2-(2-(1-(Cyclopropylsulfonyl)-1H-pyrazol-4-yl)pyrimidin-4-yl)-5-(1-(difluoromethyl)-1H-pyrazol-3-yl)-N^4-(1-(2-fluoroethyl)piperidin-3-yl)pyridine-2,4-diamine] in this work. It also gave an IC50 [4, 14] of 30.7 nM and an IC50 [5, 15] of 233 nM.

An IC50 [1, 6] of 16.4 nM, an IC50 [2, 7] of 11.1 nM and an IC50 [3, 8] of 1150 nM were found for Cc1nn(CC(F)(F)F)cc1-c1nccc(Nc2cc(N[C@H]3CC[C@@](C)(O)CC3)c(-c3ccn(C(F)F)n3)nn2)n1 [Example 375, (1s,4s)-4-((3-(1-(Difluoromethyl)-1H-pyrazol-3-yl)-6-((2-(3-methyl-1-(2,2,2-trifluoroethyl)-1H-pyrazol-4-yl)pyrimidin-4-yl)amino)pyridazin-4-yl)amino)-1-methylcyclohexan-1-ol] in this work. It also gave an IC50 [4, 9] of 51.4 nM and an IC50 [5, 10] of 2290 nM.

An IC50 [1, 6] of 0.6 nM, an IC50 [2, 7] of 1.6 nM and an IC50 [3, 8] of 15.4 nM were found for C[C@]1(O)CC[C@@H](Nc2nc(Nc3ccnc(-c4cnn(S(=O)(=O)C5CC5)c4)c3)ncc2-c2ccn(CCC(F)(F)F)n2)CC1 [Example 359, (1s,4s)-4-((2-((2-(1-(Cyclopropylsulfonyl)-1H-pyrazol-4-yl)pyridin-4-yl)amino)-5-(1-(3,3,3-trifluoropropyl)-1H-pyrazol-3-yl)pyrimidin-4-yl)amino)-1-methylcyclohexan-1-ol] in this work. For the same molecule, the IC50 [4, 9] was 18.3 nM and the IC50 [5, 10] was 208 nM.

An IC50 [1, 16] of 1.1 nM, an IC50 [1, 11] of 1.7 nM and an IC50 [2, 17] of 5.2 nM were found for Cn1cc(-c2nccc(Nc3cc(N[C@H]4CC[C@@](C)(O)CC4)c(-c4ccn(C(F)F)n4)cn3)n2)cn1 [Example 139, (1s,4s)-4-((5-(1-(Difluoromethyl)-1H-pyrazol-3-yl)-2-((2-(1-methyl-1H-pyrazol-4-yl)pyrimidin-4-yl)amino)pyridin-4-yl)amino)-1-methylcyclohexan-1-ol] in this work. It also gave an IC50 [2, 12] of 0.8 nM, an IC50 [3, 18] of 99.1 nM and an IC50 [3, 13] of 50.2 nM. The IC50 [4, 19] was 165 nM, the IC50 [4, 14] was 57.1 nM and the IC50 [5, 20] was greater than 10000 nM. The IC50 [5, 15] was 61 nM.

An IC50 [1, 6] of 3.4 nM, an IC50 [2, 7] of 4.3 nM and an IC50 [3, 8] of 404 nM were found for CC(C)Nc1nc(Nc2ccnc(-c3cnn(S(=O)(=O)C4CC4)c3)c2)ncc1-c1ccn(C(F)F)n1 [Example 363, N^2-(2-(1-(Cyclopropylsulfonyl)-1H-pyrazol-4-yl)pyridin-4-yl)-5-(1-(difluoromethyl)-1H-pyrazol-3-yl)-N^4-isopropylpyrimidine-2,4-diamine] in this work. The IC50 [4, 9] was 665 nM and the IC50 [5, 10] was 4270 nM.

An IC50 [1, 16] of 0.5 nM, an IC50 [1, 11] of 0.3 nM and an IC50 [2, 17] of 0.3 nM were found for C[C@]1(O)CC[C@@H](Nc2cc(Nc3ccnc(-c4cnn(S(=O)(=O)C5CC5)c4)n3)ncc2-c2cn3c(n2)CCC3)CC1 [Example 274, (1s,4s)-4-((2-((2-(1-(Cyclopropylsulfonyl)-1H-pyrazol-4-yl)pyrimidin-4-yl)amino)-5-(6,7-dihydro-5H-pyrrolo[1,2-a]imidazol-2-yl)pyridin-4-yl)amino)-1-methylcyclohexan-1-ol] in this work. It also gave an IC50 [2, 12] of 0.2 nM, an IC50 [3, 18] of 0.5 nM and an IC50 [3, 13] of 0.6 nM. It also gave an IC50 [4, 19] of 3.8 nM, an IC50 [4, 14] of 0.3 nM and an IC50 [5, 20] of 4880 nM. It also gave an IC50 [5, 15] of 3.4 nM.

An IC50 [1, 16] of 13.1 nM, an IC50 [2, 17] of 12.8 nM and an IC50 [3, 18] of 27.8 nM were found for CN(CC(F)F)C[C@H]1CC[C@@H](Nc2cc(Nc3ccnc(-c4cnn(S(=O)(=O)C5CC5)c4)n3)ncc2-c2ccn(CC(F)F)n2)CC1 [Example 245, N^2-(2-(1-(Cyclopropylsulfonyl)-1H-pyrazol-4-yl)pyrimidin-4-yl)-N^4-((1s,4s)-4-(((2,2-difluoroethyl)(methyl)amino)methyl)cyclohexyl)-5-(1-(2,2-difluoroethyl)-1H-pyrazol-3-yl)pyridine-2,4-diamine] in this work. It also gave an IC50 [4, 19] of 259 nM and an IC50 [5, 20] greater than 10000 nM.

An IC50 [1, 16] of 0.2 nM, an IC50 [1, 11] of 0.3 nM and an IC50 [2, 17] of 0.2 nM were found for O=S(=O)(C1CC1)n1cc(-c2nccc(Nc3cc(N[C@H]4CC[C@@H](NCCF)CC4)c(-c4nc(C(F)F)cs4)cn3)n2)cn1 [Example 123, N^2-(2-(1-(Cyclopropylsulfonyl)-1H-pyrazol-4-yl)pyrimidin-4-yl)-5-(4-(difluoromethyl)thiazol-2-yl)-N^4-((1s,4s)-4-((2-fluoroethyl)amino)cyclohexyl)pyridine-2,4-diamine] in this work. It also gave an IC50 [2, 12] of 0.1 nM, an IC50 [3, 18] of 1.3 nM and an IC50 [3, 13] of 1.4 nM. For the same molecule, the IC50 [4, 19] was 22.5 nM, the IC50 [4, 14] was 1.9 nM and the IC50 [5, 20] was greater than 10000 nM. The IC50 [5, 15] was 21.6 nM.

An IC50 [1, 11] of 2.1 nM, an IC50 [2, 12] of 2.3 nM and an IC50 [3, 13] of 72 nM were found for C[C@H](CCF)Nc1cc(Nc2ccnc(-c3cnn(S(=O)(=O)C4CC4)c3)n2)ncc1-c1ccn(C(F)F)n1 [Example 212, (R)—N^2-(2-(1-(Cyclopropylsulfonyl)-1H-pyrazol-4-yl)pyrimidin-4-yl)-5-(1-(difluoromethyl)-1H-pyrazol-3-yl)-N^4-(4-fluorobutan-2-yl)pyridine-2,4-diamine] in this work. The IC50 [4, 14] was 38.5 nM and the IC50 [5, 15] was 294 nM.
